In assay [1] the target is Cyclin-dependent kinase 4/cyclin D1 (Homo sapiens, UniProt P11802). The experiment in a line: Inhibitory activity against Cyclin D1-cyclin-dependent kinase 4 by measuring the phosphorylation of RbING. Format: protein-complex assay.
For assay [2], the target named is cAMP-dependent protein kinase (PKA) (Homo sapiens, UniProt P22694+P17612+P22612). As to the kind of experiment: Inhibition of Protein kinase A. The class given is protein assay.
For another assay, the system named is NCI-H460. As to the kind of experiment: Inhibition of human NCI-H460 (lung) carcinoma cell proliferation. The class given is functional, cell-based.
A further assay relates to HCT-116. The experiment in a line: Inhibition of human HCT(colon) carcinoma cell proliferation. The class given is functional, cell-based.
Assay [3] concerns the target Protein kinase C beta type (Homo sapiens, UniProt P05771). As to the kind of experiment: Inhibition of Protein kinase C beta 2.
The target of assay [4] is Protein kinase C alpha type (Homo sapiens, UniProt P17252). The experiment in a line: Inhibition of Protein kinase C alpha.
For assay [5], the target named is Cyclin-dependent kinase 1/cyclin B (Homo sapiens, UniProt P06493). The experiment in a line: Inhibition of Cyclin B-cyclin-dependent kinase 1. The class given is protein-complex assay.
Assay [6] has as its target Glycogen synthase kinase-3 beta (Homo sapiens, UniProt P49841). The experiment in a line: Inhibition of Glycogen synthase kinase-3 beta.
For assay [7], the target named is Protein kinase C gamma type (Homo sapiens, UniProt P05129). As to the kind of experiment: Inhibition of Protein kinase C gamma.
Assay [8] deals with Cyclin-dependent kinase 2/cyclin E (Homo sapiens, UniProt P24941). As to the kind of experiment: Inhibition of Cyclin E-cyclin-dependent kinase 2. Format: protein-complex assay.

Sequence of Cyclin-dependent kinase 4/cyclin D1 (P11802 whole entry): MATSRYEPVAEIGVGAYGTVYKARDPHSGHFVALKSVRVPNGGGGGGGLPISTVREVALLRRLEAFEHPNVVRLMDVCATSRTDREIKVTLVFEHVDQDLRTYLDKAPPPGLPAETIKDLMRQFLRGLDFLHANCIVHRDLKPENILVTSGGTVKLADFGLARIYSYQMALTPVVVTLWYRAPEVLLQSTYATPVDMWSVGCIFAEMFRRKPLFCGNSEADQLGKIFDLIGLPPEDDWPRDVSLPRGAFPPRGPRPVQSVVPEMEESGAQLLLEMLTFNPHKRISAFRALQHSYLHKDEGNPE
Sequence of Cyclin-dependent kinase 4/cyclin D1 (P24385 whole entry, further chain): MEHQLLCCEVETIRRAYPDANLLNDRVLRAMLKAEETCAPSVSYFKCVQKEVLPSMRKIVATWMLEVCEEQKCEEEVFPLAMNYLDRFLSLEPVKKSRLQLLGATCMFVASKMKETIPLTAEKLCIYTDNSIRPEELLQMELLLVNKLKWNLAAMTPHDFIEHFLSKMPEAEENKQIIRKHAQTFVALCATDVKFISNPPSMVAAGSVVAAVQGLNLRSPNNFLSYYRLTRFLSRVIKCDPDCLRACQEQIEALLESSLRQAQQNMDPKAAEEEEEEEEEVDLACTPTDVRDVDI
Sequence of Protein kinase C beta type (P05771 whole entry): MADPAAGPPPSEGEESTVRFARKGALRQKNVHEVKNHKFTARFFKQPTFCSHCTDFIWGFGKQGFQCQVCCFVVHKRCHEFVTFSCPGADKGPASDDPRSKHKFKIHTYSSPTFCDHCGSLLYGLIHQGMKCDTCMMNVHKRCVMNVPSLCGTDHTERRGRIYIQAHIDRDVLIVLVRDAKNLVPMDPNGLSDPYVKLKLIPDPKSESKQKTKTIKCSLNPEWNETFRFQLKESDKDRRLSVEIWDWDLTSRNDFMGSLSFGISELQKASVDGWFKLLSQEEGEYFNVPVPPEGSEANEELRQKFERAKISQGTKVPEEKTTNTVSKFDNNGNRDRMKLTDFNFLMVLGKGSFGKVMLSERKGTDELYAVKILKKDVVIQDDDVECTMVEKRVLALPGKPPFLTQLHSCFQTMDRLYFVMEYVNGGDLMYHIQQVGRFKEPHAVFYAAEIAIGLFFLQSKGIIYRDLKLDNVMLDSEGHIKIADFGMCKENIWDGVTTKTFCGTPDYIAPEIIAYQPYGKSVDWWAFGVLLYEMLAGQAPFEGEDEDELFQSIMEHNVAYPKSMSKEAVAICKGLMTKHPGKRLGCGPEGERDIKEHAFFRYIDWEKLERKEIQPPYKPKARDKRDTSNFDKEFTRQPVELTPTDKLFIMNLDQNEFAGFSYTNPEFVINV
Sequence of Glycogen synthase kinase-3 beta (P49841 whole entry): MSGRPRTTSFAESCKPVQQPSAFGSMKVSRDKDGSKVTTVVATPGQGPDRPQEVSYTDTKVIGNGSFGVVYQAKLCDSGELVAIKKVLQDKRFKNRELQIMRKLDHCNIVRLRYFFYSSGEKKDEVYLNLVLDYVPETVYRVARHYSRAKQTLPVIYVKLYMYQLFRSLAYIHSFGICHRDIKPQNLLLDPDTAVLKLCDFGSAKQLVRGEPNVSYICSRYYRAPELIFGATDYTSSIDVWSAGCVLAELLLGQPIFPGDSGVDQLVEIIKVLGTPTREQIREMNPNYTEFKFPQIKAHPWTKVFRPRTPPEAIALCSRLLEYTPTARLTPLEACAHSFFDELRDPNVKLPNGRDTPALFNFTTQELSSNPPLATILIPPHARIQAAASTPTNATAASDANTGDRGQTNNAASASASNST

As for `O=C1NC(=O)c2c1c1[nH]cnc1c1[nH]c3ccccc3c21` [GRANULATIMIDE], in assay [1], the IC50 – broadly, the midpoint of a concentration-inhibition curve – was found to be 740 nM.

In assay [1], `O=C1NC(=O)c2c1c1ccncc1c1[nH]c3ccccc3c21` gave an IC50 of 1810 nM.

`O=C1NC(=O)c2c1c1c3ccccc3[nH]c1c1[nH]c3ccccc3c21` [STAUROSPORINE AGLYCON] returned an IC50 in assay [2] of more than 2 µM.

`O=C1NC(=O)c2c1c1cc3ccccc3cc1c1[nH]c3ccccc3c21` displayed an IC50 in [1] of more than 10000 nM.

For `O=C1NC(O)c2c1c1c3ccccc3[nH]c1c1[nH]c3ccccc3c21` (centres undefined), in assay [1], the half-inhibitory concentration (IC50) turned out to be 3830 nM.

As to `O=C1NC(=O)c2c1c1c3ccc[nH]c-3nc1c1[nH]c3ccccc3c21`, the IC50 in the assay on NCI-H460 turned out to be 1.16 µM; in [1] it was 250 nM; in the assay on HCT-116 it was 1.05 µM.

Regarding `O=C1NC(=O)c2c1c1ccc3ccccc3c1c1[nH]c3ccccc3c21`, the 50% inhibitory concentration (IC50) in the assay with NCI-H460 is more than 10 µM; in assay [1], 430 nM; in the assay on HCT-116, more than 10 µM.

In the case of `O=C1NC(=O)c2c1c1ncccc1c1[nH]c3ccccc3c21`, the 50% inhibitory concentration (IC50) in the assay on NCI-H460 is more than 10 µM; in assay [1], 180 nM; in the assay on HCT-116 it was more than 10 µM.

With `O=C1NC(=O)c2c1c1c3ccccc3[nH]c1c1sc3ccccc3c21`, the concentration for half-maximal inhibition (IC50) in the assay on NCI-H460 came out at 2.84 µM; in [1], 220 nM; in the assay on HCT-116, 3.02 µM.

`O=C1NC(=O)c2c1c1ccccc1c1[nH]c3ccccc3c21`: the values for the IC50 (in the assay on NCI-H460; in assay [1]; in the assay on HCT-116) were 3.42 µM, 260 nM and 5.83 µM, respectively.

Turning to `O=C1NC(=O)c2c1c1c3ccccc3ccc1c1[nH]c3ccccc3c21`, the half-inhibitory concentration (IC50) in [3] was 9 µM; in [2] it was more than 20 µM; in the assay on NCI-H460, 2.11 µM; in [4], 52.8 µM; in assay [5], 590 nM; in assay [1] it was 45 nM. For the same compound, the concentration for half-maximal inhibition (IC50) was 4.38 µM in [6], 5.05 µM with HCT-116, 56.5 µM in [7] and 275 nM in assay [8].

`O=C1NC(=O)c2c1c1sccc1c1[nH]c3ccccc3c21`: the results for the IC50 (in the assay with NCI-H460; in assay [1]; in the assay on HCT-116) were more than 10 µM, 150 nM and more than 10 µM, respectively.

In the case of `O=C1NCc2c1c1c3ccccc3[nH]c1c1[nH]c3ccccc3c21` [STAUROSPORINONE], the IC50 in assay [2] was more than 2 µM; in the assay with NCI-H460, 3.2 µM; in assay [1] it was 830 nM; with HCT-116, 1.72 µM; in assay [8], more than 1000 nM.

Compound `O=C1NC(=O)c2c1c1c3c(ccc1c1[nH]c4ccccc4c21)CCCC3` gave a 50% inhibitory concentration (IC50) in assay [1] of 410 nM.

These data come from ChEMBL document CHEMBL1136336, “Aryl[a]pyrrolo[3,4-c]carbazoles as selective cyclin D1-CDK4 inhibitors” (Bioorg Med Chem Lett, 2003).
